Measured values: PubChem BioAssay AID1996
In brackets after ≈: the same amount, converted by molar mass.

Settings: buffer; pH 7.4; 200.0 µM

Row | Structure (SMILES) | solubility kinetic
1 | CC1(C)C(=O)Nc2ccccc2N1C(=O)c1ccc([N+](=O)[O-])cc1 | 2.3 µg/mL (≈ 7.07 µM)
2 | Cn1c(=O)c(C(N)=S)cn(-c2ccccc2)c1=O | 25.5 µg/mL (≈ 97.6 µM)
3 | O=C(/C=C/c1cccs1)c1ccc([N+](=O)[O-])cc1 | 1.9 µg/mL (≈ 7.33 µM)
4 | O=C(Nc1ccccc1)/C(=C\c1ccco1)NC(=O)c1ccco1 | > 48.3 µg/mL
5 | O=c1c2ccccc2nc2n1C(CSc1ccc(F)cc1)CS2 (stereo not drawn) | > 51.7 µg/mL
6 | CC(=O)c1csc(COc2ccccc2)n1 | 27.3 µg/mL (≈ 117 µM)
7 | NC(=[NH2+])SCc1[nH+]cccc1O.[Cl-] | 35.3 µg/mL
8 | CN=C1S/C(=C\c2cccc(Cl)c2Cl)C(=O)N1C | < 0.3 µg/mL
9 | CC12CCC(=O)N1C(C(=O)N1CCN(c3ccc([N+](=O)[O-])cc3)CC1)CS2 (stereo not drawn) | 30.7 µg/mL (≈ 78.6 µM)
10 | N#Cc1ccccc1S(=O)(=O)N1CCN(C(=O)C2CCCCC2)CC1 | > 54.2 µg/mL
11 | O=C1CCCCCN1CP(=O)(O)CN1CCCCCC1=O | 46.1 µg/mL (≈ 146 µM)
12 | NS(=O)(=O)c1ccc(CCNC(=O)c2ccncc2)cc1 | > 45.8 µg/mL
13 | CCN(CC)S(=O)(=O)c1ccc2c(c1)NC(=O)C1CCCN21 (stereo not drawn) | 46.6 µg/mL (≈ 144 µM)
14 | CC(C)(C)c1ccc(SCCc2cccnc2)cc1 | < 0.6 µg/mL
15 | O=C(O)/C=C/C(=O)N1CCN(C(c2ccccc2)c2ccccc2)CC1 | > 52.6 µg/mL
16 | O=C(O)c1ccc(NC(=S)NCc2ccccc2)cc1 | > 43 µg/mL
17 | CCOC(=O)c1c(NC(=O)COC(=O)c2cnccn2)sc(C)c1C | 16.8 µg/mL (≈ 46.2 µM)
18 | O=C1C(C=Nc2ccc(F)cc2)=C(O)c2ccccc21 | < 0.6 µg/mL
19 | CSCCCN1CCCC(CO)(Cc2ccccc2F)C1 (stereo not drawn) | > 46.7 µg/mL
20 | COc1ccc(NC(=O)c2ccccc2NC(=O)C2CC=CCC2C(=O)O)cc1 (stereo not drawn) | > 59.2 µg/mL
21 | O=C(NC1=NCCS1)c1cccc(Br)c1 | 11.3 µg/mL (≈ 39.6 µM)
22 | Cc1cc(C)cc(C(=O)NCCCN2CCOCC2)c1 | > 41.5 µg/mL
23 | O=C(Nc1ccc(Cl)c([N+](=O)[O-])c1)ONC1=NCCCCC1 | 42.4 µg/mL (≈ 130 µM)
24 | CC(=O)c1ccc(OC(=O)CCNC(=O)c2ccccc2)cc1 | 27.6 µg/mL (≈ 88.6 µM)

Row | Structure (SMILES) | solubility kinetic
25 | Cn1ccsc1=NC(=O)c1cccc(C#N)c1 | > 36.5 µg/mL
26 | COC(=O)c1cc(C(=O)NC(C)(C)CC(C)(C)C)cc([N+](=O)[O-])c1 | 17.8 µg/mL (≈ 52.9 µM)
27 | CCSc1nc2sc3c(c2c(=O)n1-c1ccccc1)CCN(C(C)C)C3 | 37 µg/mL (≈ 96 µM)
28 | COc1ccc(N=C2NC(=O)/C(=C/c3ccco3)S2)cc1 | 1.6 µg/mL (≈ 5.33 µM)
29 | O=C(O)C1CCN(C(=O)CSc2nnc(-c3ccccc3)o2)CC1 | > 52.1 µg/mL
30 | CC(=O)c1cccc(NC(=O)Nc2ccccc2)c1 | 10.5 µg/mL (≈ 41.3 µM)
31 | O=C(Nc1ccccc1)c1ccc2c(c1)OCCCO2 | > 40.4 µg/mL
32 | Cc1ccc(C(=O)Nc2ccccc2C(=O)NCc2ccco2)cc1 | 4.6 µg/mL (≈ 13.8 µM)
33 | CC(C)(C)C(=O)Nc1cc2c3c(c1)CCC(=O)N3CCC2 | 40 µg/mL (≈ 140 µM)
34 | O=C(/C=C/NCc1cccnc1)c1ccc(Br)cc1 | > 47.6 µg/mL
35 | COc1ccc(OCC(O)CNC(=O)c2cccs2)cc1 (stereo not drawn) | 36.9 µg/mL (≈ 120 µM)
36 | O=C(NNC(=O)c1cccnc1Cl)c1ccc(F)cc1 | > 44.1 µg/mL
37 | Cl.O=S(=O)(CCc1ccncc1)c1ccc(Cl)cc1 | > 47.7 µg/mL
38 | CSc1nc2nc3c(cc2c(=O)n1-c1cccc(C)c1)COC(C)(C)C3 | 2.6 µg/mL (≈ 7.08 µM)
39 | CC(C)CCC(C(=O)O)C(C)CC(=O)NNC(=O)c1ccco1 (stereo not drawn) | > 48.7 µg/mL
40 | COC(=O)c1ccc(-c2noc(CN3CCCC(CNC(C)=O)C3)n2)cc1 (stereo not drawn) | 43.3 µg/mL (≈ 116 µM)
41 | O=C(COC(=O)c1ccc(Cl)nc1)Nc1cc(S(=O)(=O)N2CCOCC2)ccc1Cl | 50.6 µg/mL (≈ 107 µM)
42 | CCC1(OC(=O)c2ccccc2)CC(C)N(C)CC1C.Cl (stereo not drawn) | 30.3 µg/mL
43 | O=C(CCC(=O)N1CCCCCC1)Nc1ccc([N+](=O)[O-])cc1 | 9.2 µg/mL (≈ 28.8 µM)
44 | O=C(Cn1ccc([N+](=O)[O-])n1)NCc1ccccc1 | > 39 µg/mL
45 | Cc1ccc(S(=O)(=O)N2CCOCC2)cc1C(=O)c1nccn1C | > 52.4 µg/mL
46 | O=C(Nc1ccc(NC(=O)c2ccccc2Cl)nc1)c1ccco1 | 10.2 µg/mL (≈ 29.8 µM)
47 | CCOC(=O)C1CCN(C(=O)c2[nH]c3ccc(OC)cc3c2C)CC1 | 48.3 µg/mL (≈ 140 µM)
48 | Cc1cc(Nc2ccc(C)c(Cl)c2)nc(N2CCOCC2)n1 | 7.6 µg/mL (≈ 23.8 µM)

Row | Structure (SMILES) | solubility kinetic
49 | CCCN1C(=O)/C(=C2/C=Cc3ccccc3N2CC)SC1=S | < 0.4 µg/mL
50 | CC(C)NC(=O)NNc1c(Cl)cncc1Cl | > 39.5 µg/mL
51 | N#Cc1ccccc1OCC(=O)NC1CCCCC1 | > 38.7 µg/mL
52 | CC(C)[C@H](NC(N)=O)C(=O)NCCc1ccc(Cl)cc1Cl | 48.2 µg/mL (≈ 145 µM)
53 | CN1c2ccc(Cl)cc2C(=O)NC1C1CC=CCC1 (stereo not drawn) | 3.4 µg/mL (≈ 12.3 µM)
54 | CCC(CC)C(=O)c1c[nH]c(C(=O)NC2CCCCCC2)c1 | 2 µg/mL (≈ 6.57 µM)
55 | CC1Cc2ccccc2N1C(=S)NC1CCCC1 (stereo not drawn) | 13.7 µg/mL (≈ 52.6 µM)
56 | COc1cc(SC)ccc1C(=O)OCC(=O)N1CCCC1 | > 46.4 µg/mL
57 | O=C(CC(NC(=O)c1ccccc1)c1ccccc1)NCc1ccccc1 (stereo not drawn) | 4.1 µg/mL (≈ 11.4 µM)
58 | C/C=C/c1ccc(OCC(O)CN2CCCCCCC2)c(OC)c1 (stereo not drawn) | 35.2 µg/mL (≈ 106 µM)
59 | O=C(c1ccccc1)N1CCN(c2ncccn2)CC1 | > 40.2 µg/mL
60 | CCn1c(CNC(=O)c2ccccc2F)cc2ccccc21 | 2 µg/mL (≈ 6.75 µM)
61 | CCOC(=O)C1CCN(S(=O)(=O)c2ccc(NC(C)=O)c(Cl)c2)CC1 | 7.3 µg/mL (≈ 18.8 µM)
62 | O=C(COc1ccccc1Cl)N1CCNC1=O | > 38.2 µg/mL
63 | Cc1nc2cc(NC(=O)Nc3ccccc3Cl)ccc2n1C | 7.4 µg/mL (≈ 23.5 µM)
64 | CCN1C(=O)/C(=C\N(C)C)S/C1=N\S(=O)(=O)c1ccccc1 | 49.3 µg/mL (≈ 145 µM)
65 | Cc1ccc(C)c(S(=O)(=O)N2CCN(C(=O)[C@H](Cc3ccccc3)NC(=O)c3ccco3)CC2)c1 | 18.2 µg/mL (≈ 36.7 µM)
66 | CN1CCN(c2nc3ccccc3nc2NS(=O)(=O)c2ccc(Br)cc2)CC1 | > 69.4 µg/mL
67 | CCc1nccn1S(=O)(=O)c1ccccc1[N+](=O)[O-] | > 42.2 µg/mL
68 | COc1ccc(CN(C)C(=O)CNC(=O)c2ccc(C)cc2)cc1 | > 49 µg/mL
69 | O=C(c1nc2ccccc2[nH]1)c1ccccc1[N+](=O)[O-] | 32.3 µg/mL (≈ 121 µM)
70 | Cc1ccccc1C(=O)OCc1cnc(Cl)s1 | 1.4 µg/mL (≈ 5.23 µM)
71 | O=C(O)CCN=Cc1c(O)c2ccccc2oc1=O | > 39.2 µg/mL
72 | CN(C1=NC(=O)CS1)c1ccc(O)cc1 | > 33.3 µg/mL

Row | Structure (SMILES) | solubility kinetic
73 | Cc1ccc(C(=O)NC(=S)Nc2ccc3[nH]c(=O)[nH]c3c2)c(C)c1 | < 0.2 µg/mL
74 | C[n+]1ccc(C(=O)NCc2ccccc2)cc1.[I-] | 39.3 µg/mL
75 | CC1CCCC(NC(=O)CCCn2c(=S)[nH]c3ccccc3c2=O)C1C (stereo not drawn) | < 0.3 µg/mL
76 | CC1(C)CC2CC(C)(CN2Cc2cccc([N+](=O)[O-])c2)C1 (stereo not drawn) | 5.2 µg/mL (≈ 18 µM)
77 | COc1ccc(CCC(=O)NCC23CC4CC(CC(C4)C2)C3)cc1 | 30.7 µg/mL (≈ 93.7 µM)
78 | COc1cccc(Nc2ncnc3sccc23)c1 | > 38.6 µg/mL
79 | N#Cc1c(N)n(-c2ccccc2N)c2nc3ccccc3nc12 | 5.4 µg/mL (≈ 18 µM)
80 | O=C(O)c1ccc[nH]c1=S | > 23.3 µg/mL
81 | O=C(NCCOCc1ccccc1)C(c1ccccc1)c1ccccc1 | 23.3 µg/mL (≈ 67.4 µM)
82 | Nc1ccc2ccc3cccc[n+]3c2c1.[O-][Cl+3]([O-])([O-])[O-] | > 44.2 µg/mL
83 | CCC(OC(=O)C1=Cc2ccccc2OC1)C(=O)NCc1ccco1 (stereo not drawn) | 3.1 µg/mL (≈ 9.08 µM)
84 | CCOC(=O)C1CCCN(CC(=O)Nc2cc(C)cc(C)c2)C1 (stereo not drawn) | 29.3 µg/mL (≈ 92 µM)
85 | CN(CC(=O)Nc1ccc(OC(F)(F)F)cc1)C(=O)/C=C/c1ccco1 | 7.7 µg/mL (≈ 20.9 µM)
86 | COc1ccc(Nc2oc(-c3ccccc3F)nc2C#N)cc1 | < 0.2 µg/mL
87 | O=C(NC1CCN(CCc2c[nH]c3ccccc23)CC1)c1ccccc1 | 51.7 µg/mL (≈ 149 µM)
88 | COc1cccc(C(=O)Nc2ccccc2C(=O)NC2CC2)c1 | 11.9 µg/mL (≈ 38.3 µM)
89 | Cc1csc2nc(NC(=O)c3ccccc3)sc(=O)c12 | 0.9 µg/mL (≈ 2.98 µM)
90 | O=C(COC(=O)/C=C/c1ccc(Cl)cc1)Nc1cccc(S(=O)(=O)NC2=NCCCCC2)c1 | 8.7 µg/mL (≈ 17.8 µM)
91 | Cc1c(C=O)c2cc(OCc3ccccc3)ccc2n1C | < 0.6 µg/mL
92 | O=C(NCCCN1CCCC1=O)c1ccc(NS(=O)(=O)c2ccccc2)cc1 | 58.8 µg/mL (≈ 146 µM)
93 | COc1ccc(OC(C)C(=O)N(C)Cc2nc(-c3ccccc3)no2)cc1 (stereo not drawn) | 41 µg/mL (≈ 112 µM)
94 | CCOCCCNC(=S)N1CCC(C(=O)c2ccc(C)cc2)CC1 | 51.8 µg/mL (≈ 149 µM)
95 | Cc1cc(C(=O)COC(=O)c2cccn2C)c(C)n1Cc1ccco1 | 2.8 µg/mL (≈ 8.23 µM)
96 | CC(=O)c1ccc(-c2ccc(C(=O)NCC3CCCO3)o2)cc1 (stereo not drawn) | > 47 µg/mL

Row | Structure (SMILES) | solubility kinetic
97 | Cc1ccc(CNS(=O)(=O)c2ccccc2[N+](=O)[O-])cc1 | 38.7 µg/mL (≈ 126 µM)
98 | CCOC(=O)c1cc(C)sc1/N=C/C1C(=O)NC(=S)NC1=O | 4.7 µg/mL (≈ 13.8 µM)
99 | Br.Fc1ccc(CNCC2CCCO2)cc1 (stereo not drawn) | 39.1 µg/mL
100 | Cc1ccc(CNC(=O)Nc2ccccc2)c(C)c1 | 0.7 µg/mL (≈ 2.75 µM)
101 | CC(=O)c1ccc(N2CCN(C(=O)Nc3cccc(F)c3)CC2)cc1 | 4.8 µg/mL (≈ 14.1 µM)
102 | COc1ccc(NC(=O)c2cc([N+](=O)[O-])ccc2O)cc1 | > 43.2 µg/mL
103 | COc1ccc(CC(=O)Nc2cc(C)ccn2)cc1OC | 27.7 µg/mL (≈ 96.7 µM)
104 | CCOc1ccc(NC(=S)N2CCCC2)cc1 | > 37.6 µg/mL
105 | O=C(c1cc2cc(F)ccc2[nH]1)N1CCc2ccccc2C1 | 0.9 µg/mL (≈ 3.06 µM)
106 | C=C(C)C1CC=C(CN2CCN(Cc3ccccc3)CC2)CC1 (stereo not drawn) | 17.8 µg/mL (≈ 57.3 µM)
107 | S=C(NCc1ccccc1)N1CCc2ccccc2C1 | 5.6 µg/mL (≈ 19.8 µM)
108 | C=CCn1c(SCCCC)nc([O-])cc1=O.[NH4+] | 22.4 µg/mL
109 | Nc1c(C(=O)OCC(=O)NCc2ccccc2)[nH]c(=O)[nH]c1=O | 28.9 µg/mL (≈ 90.8 µM)
110 | Oc1ccc2oc3c(c2c1C=NCc1ccncc1)CCCC3 | 16.9 µg/mL (≈ 55.2 µM)
111 | CC1CCCN(S(=O)(=O)c2cc(C(=O)NCc3ccco3)ccc2Cl)C1 (stereo not drawn) | 52.6 µg/mL (≈ 133 µM)
112 | COc1ccc(CNCCC2(C(C)C)CCOC(C)(C)C2)cc1 (stereo not drawn) | > 47.9 µg/mL
113 | CCOc1ccc(OCCCC(=O)NCCOc2ccccc2OC)cc1 | > 56 µg/mL
114 | CN(Cc1nc2ccccc2[nH]1)Cc1nc(CC2CC2)no1 | > 44.6 µg/mL
115 | O=C(Nc1ccc(Cl)cc1Cl)c1csc(-c2cccnc2)n1 | 1.6 µg/mL (≈ 4.57 µM)
116 | COC(=O)c1ccc(N2CCN(C)CC2)c(NC(=O)c2cccnc2)c1 | 51.4 µg/mL (≈ 145 µM)
117 | COc1cccc(/C=C/c2ccc3cccc(O)c3n2)c1OC | 1.2 µg/mL (≈ 3.9 µM)
118 | COc1ccccc1C(=O)NCCC(=O)Nc1ccc(C)cn1 | 43.7 µg/mL (≈ 139 µM)
